From paper PMC4977564, “Inhibition of Mycobacterium tuberculosis dihydrodipicolinate synthase by alpha-ketopimelic acid and its other structural analogues” (Scientific Reports, 2016)

biological target: T1, recombinant Mtb-DapA (Mtb-rDapA) (Mycobacterium tuberculosis, UniProt P9WP25); test: not given; conditions: pyruvate 500 μM, ASA 400 μM; up to millimolar concentrations
T1 sequence (P9WP25 whole entry, looked up): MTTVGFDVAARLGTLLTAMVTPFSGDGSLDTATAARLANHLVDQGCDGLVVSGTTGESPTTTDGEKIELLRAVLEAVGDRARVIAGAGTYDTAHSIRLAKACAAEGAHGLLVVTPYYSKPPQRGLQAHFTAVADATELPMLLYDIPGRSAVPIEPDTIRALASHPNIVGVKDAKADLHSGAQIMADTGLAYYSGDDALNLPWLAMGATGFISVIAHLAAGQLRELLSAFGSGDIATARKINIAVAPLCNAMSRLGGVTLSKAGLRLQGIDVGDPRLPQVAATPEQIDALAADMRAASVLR

| SMILES | Inhibition of Mtb-rDapA (in words) |
| --- | --- |
| CCCCc1ccc(C(=O)O)nc1 [compound 10, 5-butylpyridine-2-carboxylic acid] | None of these showed inhibition |
| Nc1ccc(C(=O)O)cc1 [p-amino benzoic acid] | None of these showed inhibition |
| O=C(O)c1ccccc1 [compound 5, Benzoic acid] | None of these showed inhibition |
| O=C(O)COc1ccccc1 [compound 9, 2-phenoxyacetic acid] | None of these showed inhibition |
| Nc1ccc(C(=O)O)c(O)c1 [compound 8, 4-amino-2-hydroxy-benzoic acid] | None of these showed inhibition |
| CCCC(=O)CC(=O)OC [compound 7, Methyl 3-oxohexanoate] | did not show any inhibition |

same assay, conditions: read-out: Michaelis constant, Km; substrate of Mtb-rDapA

| SMILES | Km |
| --- | --- |
| N[C@@H](CC=O)C(=O)O [ASA, L-aspartate-beta-semialdehyde] | 388 µM |

biological target: Mtb-rDapA (Mycobacterium tuberculosis, UniProt P9WP25); test: Fluorescence-based thermal shift assay; assay type: binding; conditions: ligand 0.2 mM to 1 mM; Mtb-rDapA Tm 84.8 °C
Description: The fluorescence based thermal shift assay for screening of identified ligands, which is based on the principle that ligand binding alters thermal stability of protein. This method allows us to monitor the protein denaturation upon heating using fluorescence based dye (Sypro orange, Sigma, USA), which binds to hydrophobic part of proteins during protein denaturation and emits fluorescence at 580 nm[43]. We can monitor the changes in fluorescence and generate a thermal melting curve using real time PCR. The mid-point of the melting curve designated as the melting temperature Tm corresponding to 50% of protein being denatured.
The thermal shift assay was carried out in the LightCycler^R LC480 qPCR machine using 384 well PCR plates (Roche, USA). An assay mixture of 20 μl contained 20 μM Mtb-rDapA, 15 X Sypro Orange (Sigma), 50 mM sodium phosphate buffer pH 7.4 and ligand in the range 0.2 mM to 1 mM. The ligands and Mtb-rDapA were diluted in sodium phosphate buffer. The PCR plates were sealed with optical seal, mixed well and centrifuged after the assay mixture was added. […] The fluorescence intensity was measured by excitation at 465 nm and emission at 580 nm. Curve fitting, melting temperature calculation and report generation on the raw Fluorescence based thermal shift assay (FTS) data were performed using pre-installed analysis software provided with the instrument (Roche, USA)[44].

Chain of Mtb-rDapA (P9WP25 whole entry, looked up): as above

| SMILES | Tm increase of Mtb-rDapA upon binding |
| --- | --- |
| CC(=O)C(=O)O [pyruvate] | 2 °C |

biological target: T1, recombinant Mtb-DapA (Mtb-rDapA); test: biochemical; conditions: IC50, pyruvate 500 μM, ASA 400 μM

| SMILES | IC50 |
| --- | --- |
| O=C(O)CCCCC(O)C(=O)O (centres unmarked) [compound 11, hydroxyheptanedioic acid] | 31 µM |

same assay, conditions: read-out: Maximal Inhibition (%)

| SMILES | Emax |
| --- | --- |
| O=C(O)c1ccc(C(O)C(=O)O)cc1 (centres unmarked) [compound 23, Carboxy-hydroxy-methyl benzoic acid] | 35% |
| O=C(O)CCC(=O)C(=O)O [compound 3, 2-oxopentanedioic acid] | 15% |
| CCCCc1ccc(C(=O)O)nc1 [compound 10, 5-butylpyridine-2-carboxylic acid] | 5% |
| COC(=O)CCCCC(O)C(N)=O (centres unmarked) [compound 31, Methyl 7-amino-6-hydroxy-7-oxoheptanoate] | 28% |
| O=C(O)CCCC(=O)C(=O)O [compound 2, 2-oxohexanedioic acid] | 40% |
| COC(=O)CCCCC(=O)C(N)=O [compound 32, methyl 7-amino-6,7-dioxoheptanoate] | 24% |
| CCOC(=O)CCCS(=O)(=O)CC(N)=O [compound 39, Ethyl 4-((2-amino-2-oxoethyl)sulfonyl)butanoate] | 12% |
| CCOC(=O)C(=O)CCCCC(=O)O [compound 20, Ethoxy-dioxoheptanoic acid] | 35% |
| COC(=O)c1ccc(C(O)C(=O)O)cc1 (centres unmarked) [compound 24, Hydroxy-methoxycarbonyl pheny acetic acid] | 35% |
| O=C(O)c1ccccc1 [compound 5, Benzoic acid] | 2% |
| CCOC(=O)C(=O)N(C)CCCC(=O)OC [compound 15, methyl-ethoxy-methyl-oxoacetamido-butanoate] | 42% |
| NC(=O)CCCCC(O)C(N)=O (centres unmarked) [compound 35, 2-Hydroxyheptanediamide] | 21% |
| COC(=O)CCCC(=O)NC(N)=O [compound 12, Methyl-oxo-ureidopentanoate] | 65% |
| O=C(O)CCCN1C(=O)NC(=O)C1=O [compound 36, 4-(2,4,5-Trioxoimidazolidin-1-yl) butanoic acid] | 21% |
| COC(=O)CCCN1C(=O)NC(=O)C1=O [compound 19, methyl-trioxoimidazolidin -butanoate] | 38% |
| O=C(O)COc1ccccc1 [compound 9, 2-phenoxyacetic acid] | 4% |
| COC(=O)CCCCC(=O)c1nn[nH]n1 [compound 21, methyl-oxo-tetrazol-hexanoate] | 35% |
| CN(CCCC(N)=O)C(=O)C(=O)O [compound 14, amino-oxobutyl-methyl-amino-oxoacetic acid] | 44% |
| NC(=O)SCCCCC(=O)O [compound 13, 5-(Carbamoylthio)pentanoic acid] | 65% |

| SMILES | Emax |
| --- | --- |
| CN(CCCC(N)=O)C(=O)C(N)=O [compound 17, amino-oxobutyl-methyloxalamide] | 40% |
| NC(=O)C(=O)c1ccc(C(=O)O)cc1 [compound 26, amino-oxoacetyl-benzoic acid] | 34% |
| O=C(O)C(=O)c1ccc(C(=O)O)cc1 [compound 33, carboxycarbonyl-benzoic acid] | 22% |
| Nc1ccc(C(=O)O)c(O)c1 [compound 8, 4-amino-2-hydroxy-benzoic acid] | 4% |
| Nc1ccc(C(=O)O)cc1 [compound 6, p-amino benzoic acid] | 8% |
| CCOC(=O)C(=O)N(C)CCCC(N)=O [compound 25, Ethyl-amino-oxobutyl-methyl-amino-oxoacetate] | 35% |
| CCOC(=O)CCCSCC(N)=O [compound 34, Ethyl 4-((2-amino-2-oxoethyl)thio)butanoate] | 21% |
| CCCC(=O)CC(=O)OC [compound 7, Methyl 3-oxohexanoate] | 5% |
| COC(=O)c1ccc(C(=O)C(N)=O)cc1 [compound 22, Methyl-amino-oxoacetyl benzoate] | 35% |
| CCOC(=O)CCCCSC(N)=O [compound 27, ethyl-carbamoylthio-pentanoate] | 34% |
| NC(=O)CS(=O)(=O)CCCC(=O)O [compound 30, 4-((2-amino-2-oxoethyl)sulfonyl) butanoic acid] | 29% |
| CN(CCCC(=O)O)C(=O)C(=O)O [compound 18, carboxy-methylformamido-butanoic acid] | 39% |
| O=C(O)CCCCCC(=O)O [compound 4, heptanedioic acid] | 10% |
| COC(=O)c1ccc(C(=O)C(=O)O)cc1 [compound 29, methoxycarbonyl-phenyl-oxoacetic acid] | 29% |
| CCOC(=O)CCC[S+]([O-])CC(N)=O (centres unmarked) [compound 28, Ethyl 4-((2-amino-2-oxoethyl)sulfinyl)butanoate] | 31% |
| NC(=O)c1ccc(C(=O)C(=O)O)cc1 [compound 37, 2-(4-Carbamoylphenyl)-2-oxoacetic acid] | 15% |
| NC(=O)CSCCCC(=O)O [compound 38, 4-((2-Amino-2-oxoethyl)thio) butanoic acid] | 15% |
| O=C(O)CCCCC(O)C(=O)O (centres unmarked) [compound 11, hydroxyheptanedioic acid] | 74% |
| NC(=O)NC(=O)CCCC(=O)O [compound 16, oxo-ureidopentanoic acid] | 40% |

tested on: Escherichia coli DapA; test: not given; conditions: cited from earlier work

| SMILES | IC50 |
| --- | --- |
| COC(=N)c1cccc(C(=N)OC)n1 [di-imidate of dimethyl pyridine-2,6-dicarboxylate] | 200 µM |
| O=C(O)c1cccc(C(=O)O)[n+]1[O-] [N-oxide of dipicolinic acid] | 200 µM |

same assay, conditions: competitive inhibitors, structural analogues of pyruvate; cited from earlier work

| SMILES | Ki |
| --- | --- |
| O=C(O)C(=O)CF [3-fluoropyruvate] | 220 µM |
| CCC(=O)C(=O)O [α-ketobutyrate] | 830 µM |
| O=CC(=O)O [glyoxylate] | 16 µM |
| CCCC(=O)C(=O)O [α-ketovalerate] | 700 µM |
